Legend:
[1] = test system: Staphyrococcus aureus (S. aureus, ATCC 6538P); assay: Minimum bactericidal concentration (disinfecting effect), 1 minute contact; assay type: cell-based; conditions: contact 1 minute, culture 37° C. 20 hours
Description: (§1) The disinfecting effect was evaluated in accordance with the following methods.
(§2) Seven microorganisms, i.e., Staphyrococcus aureus (S. aureus, ATCC 6538P), methicillin-resistant S. aureus (MRSA IID 1677), methicillin-resistant S. aureus (MRSA of a clinically isolated strain), Escherichia coli (E. coli, IFO 3301), Klebsiella pneumoniae (pneumoniae, IFO ATCC 4352), Pseudomonus aeruginosa (P. aeruginosa, IFO 3080) and Serratia marcescens (S. marcescens of a clinically isolated strain), were used for the test.
(§3) A test microorganism in an inoculating loop to streak a portion of 8 ml of a culture medium of soybean casein digest (SCD) on the surface and cultured at 37° C. for 18 hours. The obtained medium in an amount of 1 ml was diluted with the SCD culture medium to 1/10 of the original concentration. The diluted medium in an amount of 2 ml was brought into contact with 100 ml of the SCD culture medium. The obtained medium was cultured at 37° C. for 2 hours except that the medium containing P. aeruginosa was cultured for 4 hours and a liquid of a test microorganism was prepared. The liquid of a test microorganism contained 10^6 to 10^8 live microorganisms per 1 ml of the liquid.
(§4) A series of solutions containing a composition of a sterilizing disinfectant were prepared by dilution with a physiological saline in a manner such that each solution was diluted to one half the concentration to prepare a solution having the next lower concentration. The solutions of a series each in an amount of 10 ml were separately placed into test tubes, treated for disinfection in an autoclave and mixed with a liquid of a test microorganism in an amount of 0.1 ml. After the sterilizing disinfectant and the test microorganism were kept in contact with each other for 1 minute, the obtained liquid for inoculation in an amount of 0.1 ml was added to each of three SCD-LP (lecithin polysolvate) culture media (9 ml, each) which had been disinfected in advance. After the inoculated media were cultured at 37° C. for 20 hours, the presence or the absence of turbidity in the media was examined. When the medium was transparent, it was decided that no growth of the microorganism could be recognized and the result for this medium was expressed as −. When the medium was turbid, it was decided that growth of the microorganism could be recognized and the result for this medium was expressed as+. […] The minimum concentration of the composition of a sterilizing disinfectant which gave the result of − was used as the minimum bactericidal concentration (MBC).

[2] = test system: Serratia marcescens (S. marcescens of a clinically isolated strain); assay: as above; assay type: cell-based; conditions: contact 1 minute, culture 37° C. 20 hours
Description: as §1, §2, §3, §4

[3] = test system: Escherichia coli (E. coli, IFO 3301); assay: as above; assay type: cell-based; conditions: contact 1 minute, culture 37° C. 20 hours
Description: as §1, §2, §3, §4

[4] = test system: Klebsiella pneumoniae (pneumoniae, IFO ATCC 4352); assay: as above; assay type: cell-based; conditions: K. pneumoniae; contact 1 minute; culture 37° C. 20 hours
Description: as §1, §2, §3, §4

[5] = test system: Pseudomonus aeruginosa (P. aeruginosa, IFO 3080); assay: as above; assay type: cell-based; conditions: contact 1 minute, culture 37° C. 20 hours
Description: as §1, §2, §3, §4

[6] = test system: methicillin-resistant S. aureus (MRSA IID 1677); assay: as above; assay type: cell-based; conditions: contact 1 minute, culture 37° C. 20 hours
Description: as §1, §2, §3, §4

[7] = test system: methicillin-resistant S. aureus (MRSA of a clinically isolated strain); assay: as above; assay type: cell-based; conditions: contact 1 minute, culture 37° C. 20 hours
Description: as §1, §2, §3, §4

[8] = Test of skin stimulation (sealed filter paper on inner side of left upper arm); assay type: in vivo, human; design: key to primary stimulation (skin stimulation): −: negative (no reaction); ±: rubedo alone; +: rubedo and humectation or papula; ++: rubedo, edema and marked papula or small blisters; conditions: for primary stimulation (skin stimulation): 0.02 ml, one per person
Description: The test of skin stimulation was conducted in accordance with the following method.
A sterilizing disinfectant in an amount of 0.02 ml was placed on a filter paper and attached to a portion at the inner side of the left upper arm of a person in a manner such that the paper was sealed. The test was conducted with five male persons (A to E) and five female persons (F to J). The primary stimulation was evaluated 30 minutes and 24 hours after the attachment of the paper and the result was classified into four levels. The criterion for the classification was as follows:
Criterion for the Classification
−: negative (no reaction)
+: rubedo and humectation or papula
++: rubedo, edema and marked papula or small blisters

Substance	Minimum batericidal concentration [1] [ppm]	Minimum batericidal concentration [2] [ppm]	Minimum batericidal concentration [3] [ppm]	Minimum batericidal concentration [4] [ppm]	Minimum batericidal concentration [5] [ppm]	Minimum batericidal concentration [6] [ppm]	Minimum batericidal concentration [7] [ppm]	primary stimulation (skin stimulation) ([8]; 30 minutes after attachment)	primary stimulation (skin stimulation) ([8]; 24 hours after attachment)	skin disorder ([8]; summary in words of the test of skin stimulation)
benzalkonium chloride [Comparative Example 4]	32	64	64	64	250	32	64			
benzalkonium chloride [Comparative Example 5]								− and ±	+ and ++	marked skin disorder
